Assay [1] deals with HCV genotype 1a (H77 strain) replicon in HUH-7 cells. Nature of the assay: HCV replicon luciferase reporter assay, genotype 1a. The note with it: Hepatitis C virus, Huh-7, 72 h, HCV genotype 1a replicon luciferase, 3 days incubation, read-out: LE_1a (EC50, range). The format is cell-based. In outline:
(§1)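 Replicon inhibition for both genotypes was measured as Renilla luciferase signal (EnduRen, 7.5 μM final, 2 h) after 3-day, 37° C exposure of replicon-bearing HUH-7 cells in 4% FCS DMEM, 0.5% DMSO. The 1b construct carries S1179I; the 1a H77 construct carries P1496L and S2204I. Twenty-point, 3-fold dilutions were fitted four-parametrically for EC50, and CC50 was taken from multiplexed Cell Titer-Blue.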

For assay [2], the system named is HCV genotype 1b (Con1) replicon in HUH-7 cells. Nature of the assay: HCV replicon luciferase reporter assay, genotype 1b. The format is cell-based. The note with it: Hepatitis C virus, Huh-7, 72 h, HCV genotype 1b replicon luciferase, 3 days incubation, read-out: LE_1b (EC50, range). The method in brief:
as §1
A general note: A replicon is a self-replicating genome or part of one, used to study replication in cells.

For orientation: EC50 means the concentration at which the effect is half-maximal.

SMILES strings stand for the structures.

For the compound `COc1ccc2c(O[C@@H]3C[C@H]4C(=O)N[C@]5(C(=O)NS(=O)(=O)C6CC6)C[C@H]5/C=C\CC[C@@H](C)C[C@@H](C)[C@H](NC(=O)OC(C)(C)C)C(=O)N4C3)nc(-c3ccc(OC(C)C)nc3)cc2c1` [Compound 5213, tert-butyl ((2R,6S,7R,9R,13aS,14aR,16aS,Z)-14a-((cyclopropylsulfonyl)carbamoyl)-2-((3-(6-isopropoxypyridin-3-yl)-6-methoxyisoquinolin-1-yl)oxy)-7,9-dimethyl-5,16-dioxo-1,2,3,5,6,7,8,9,10,11,13a,14,14a,15,16,16a-hexadecahydrocyclopropa[e]pyrrolo[1,2-a][1,4]diazacyclopentadecin-6-yl)carbamate], the concentration for a half-maximal effect (EC50) in assay [1] and in assay [2] was below 5.46 nM in each case.

With `COc1ccc2c(O[C@@H]3C[C@H]4C(=O)N[C@]5(C(=O)NS(=O)(=O)C6CC6)C[C@H]5/C=C\CC[C@H](C)C[C@@H](C)[C@H](NC(=O)OC(C)(C)C(F)(F)F)C(=O)N4C3)nc(-c3ccc(OC(C)C)nc3)cc2c1` [Compound 5214, 1,1,1-trifluoro-2-methylpropan-2-yl((2R,6S,7R,9S,13aS,14aR,16aS,Z)-14a-((cyclopropylsulfonyl)carbamoyl)-2-((3-(6-isopropoxypyridin-3-yl)-6-methoxyisoquinolin-1-yl)oxy)-7,9-dimethyl-5,16-dioxo-1,2,3,5,6,7,8,9,10,11,13a,14,14a,15,16,16a-hexadecahydrocyclopropa[e]pyrrolo[1,2-a][1,4]diazacyclopentadecin-6-yl)carbamate], the results for the concentration for a half-maximal effect (EC50) in assay [1] and in assay [2] were 4.82 to 103 nM and below 5.46 nM, respectively.

Consider `COc1ccc2c(O[C@@H]3C[C@H]4C(=O)N[C@]5(C(=O)NS(=O)(=O)C6CC6)C[C@H]5/C=C\CC[C@@H](C)C[C@@H](C)[C@H](NC(=O)OC(C)(C)C(F)(F)F)C(=O)N4C3)nc(-c3ccc(OC(C)C)nc3)cc2c1` [Compound 5215, 1,1,1-trifluoro-2-methylpropan-2-yl((2R,6S,7R,9R,13aS,14aR,16aS,Z)-14a-((cyclopropylsulfonyl)carbamoyl)-2-((3-(6-isopropoxypyridin-3-yl)-6-methoxyisoquinolin-1-yl)oxy)-7,9-dimethyl-5,16-dioxo-1,2,3,5,6,7,8,9,10,11,13a,14,14a,15,16,16a-hexadecahydrocyclopropa[e]pyrrolo[1,2-a][1,4]diazacyclopentadecin-6-yl)carbamate], for which the EC50 in assay [1] and in assay [2] was below 5.46 nM in each case.

Take `[2H]C([2H])([2H])C(OC(=O)N[C@@H]1C(=O)N2C[C@H](Oc3nc(-c4ccc(OC(C)C)nc4)cc4cc(OC)ccc34)C[C@H]2C(=O)N[C@]2(C(=O)NS(=O)(=O)C3CC3)C[C@H]2/C=C\CC[C@H](C)C[C@H]1C)(C([2H])([2H])[2H])C(F)(F)F` [Compound 5216, 1,1,1,3,3,3-hexadeutero-2-(trifluoromethyl)propan-2-yl((2R,6S,7R,9S,13aS,14aR,16aS,Z)-14a-((cyclopropylsulfonyl)carbamoyl)-2-((3-(6-isopropoxypyridin-3-yl)-6-methoxyisoquinolin-1-yl)oxy)-7,9-dimethyl-5,16-dioxo-1,2,3,5,6,7,8,9,10,11,13a,14,14a,15,16,16a-hexadecahydrocyclopropa[e]pyrrolo[1,2-a][1,4]diazacyclopentadecin-6-yl)carbamate]: the results for the EC50 in assay [1] and in assay [2] were 4.82 to 103 nM and below 5.46 nM, respectively.

As to `[2H]C([2H])([2H])C(OC(=O)N[C@@H]1C(=O)N2C[C@H](Oc3nc(-c4ccc(OC(C)C)nc4)cc4cc(OC)ccc34)C[C@H]2C(=O)N[C@]2(C(=O)NS(=O)(=O)C3CC3)C[C@H]2/C=C\CC[C@@H](C)C[C@H]1C)(C([2H])([2H])[2H])C(F)(F)F` [Compound 5217, 1,1,1,3,3,3-hexadeutero-2-(trifluoromethyl)propan-2-yl((2R,6S,7R,9R,13aS,14aR,16aS,Z)-14a-((cyclopropylsulfonyl)carbamoyl)-2-((3-(6-isopropoxypyridin-3-yl)-6-methoxyisoquinolin-1-yl)oxy)-7,9-dimethyl-5,16-dioxo-1,2,3,5,6,7,8,9,10,11,13a,14,14a,15,16,16a-hexadecahydrocyclopropa[e]pyrrolo[1,2-a][1,4]diazacyclopentadecin-6-yl)carbamate], the concentration for a half-maximal effect (EC50) in assay [1] and in assay [2] was below 5.46 nM throughout.

For the compound `COc1ccc2c(O[C@@H]3C[C@H]4C(=O)N[C@]5(C(=O)NS(=O)(=O)C6CC6)C[C@H]5/C=C\CC[C@H](C)C[C@@H](C)[C@H](NC(=O)OC5C[C@@H]6C[C@@H]6C5)C(=O)N4C3)nc(-c3ccc(OC(C)C)nc3)cc2c1` (stereo partly drawn) [Compound 5218, (1R,3r,5S)-bicyclo[3.1.0]hexan-3-yl((2R,6S,7R,9S,13aS,14aR,16aS,Z)-14a-((cyclopropylsulfonyl)carbamoyl)-2-((3-(6-isopropoxypyridin-3-yl)-6-methoxyisoquinolin-1-yl)oxy)-7,9-dimethyl-5,16-dioxo-1,2,3,5,6,7,8,9,10,11,13a,14,14a,15,16,16a-hexadecahydrocyclopropa[e]pyrrolo[1,2-a][1,4]diazacyclopentadecin-6-yl)carbamate], the concentration for a half-maximal effect (EC50) in assay [1] and in assay [2] was below 5.46 nM each time.

For `COc1ccc2c(O[C@@H]3C[C@H]4C(=O)N[C@]5(C(=O)NS(=O)(=O)C6CC6)C[C@H]5/C=C\CC[C@@H](C)C[C@@H](C)[C@H](NC(=O)OC5C[C@@H]6C[C@@H]6C5)C(=O)N4C3)nc(-c3ccc(OC(C)C)nc3)cc2c1` (stereo partly drawn) [Compound 5219, (1R,3r,5S)-bicyclo[3.1.0]hexan-3-yl((2R,6S,7R,9R,13aS,14aR,16aS,Z)-14a-((cyclopropylsulfonyl)carbamoyl)-2-((3-(6-isopropoxypyridin-3-yl)-6-methoxyisoquinolin-1-yl)oxy)-7,9-dimethyl-5,16-dioxo-1,2,3,5,6,7,8,9,10,11,13a,14,14a,15,16,16a-hexadecahydrocyclopropa[e]pyrrolo[1,2-a][1,4]diazacyclopentadecin-6-yl)carbamate], the EC50 in assay [1] and in assay [2] was below 5.46 nM in each case.

On to `COc1ccc2c(O[C@@H]3C[C@H]4C(=O)N[C@]5(C(=O)NS(=O)(=O)C6CC6)C[C@H]5/C=C\CC[C@H](C)C[C@@H](C)[C@H](NC(=O)NC(C)(C)C)C(=O)N4C3)nc(-c3ccc(OC(C)C)nc3)cc2c1` [Compound 5220, (2R,6S,7R,9S,13aS,14aR,16aS,Z)-6-(3-(tert-butyl)ureido)-N-(cyclopropylsulfonyl)-2-((3-(6-isopropoxypyridin-3-yl)-6-methoxyisoquinolin-1-yl)oxy)-7,9-dimethyl-5,16-dioxo-1,2,3,5,6,7,8,9,10,11,13a,14,14a,15,16,16a-hexadecahydrocyclopropa[e]pyrrolo[1,2-a][1,4]diazacyclopentadecine-14a-carboxamide], for which the EC50 in assay [1] and in assay [2] was below 5.46 nM each time.

As for `COc1ccc2c(O[C@@H]3C[C@H]4C(=O)N[C@]5(C(=O)NS(=O)(=O)C6CC6)C[C@H]5/C=C\CC[C@@H](C)C[C@@H](C)[C@H](NC(=O)NC(C)(C)C)C(=O)N4C3)nc(-c3ccc(OC(C)C)nc3)cc2c1` [Compound 5221, (2R,6S,7R,9R,13aS,14aR,16aS,Z)-6-(3-(tert-butyl)ureido)-N-(cyclopropylsulfonyl)-2-((3-(6-isopropoxypyridin-3-yl)-6-methoxyisoquinolin-1-yl)oxy)-7,9-dimethyl-5,16-dioxo-1,2,3,5,6,7,8,9,10,11,13a,14,14a,15,16,16a-hexadecahydrocyclopropa[e]pyrrolo[1,2-a][1,4]diazacyclopentadecine-14a-carboxamide], the EC50 in assay [1] and in assay [2] was below 5.46 nM each time.

With `COc1ccc2c(O[C@@H]3C[C@H]4C(=O)N[C@]5(C(=O)NS(=O)(=O)C6(C)CC6)C[C@H]5/C=C\CC[C@H](C)C[C@@H](C)[C@H](NC(=O)OC(C)(C)C)C(=O)N4C3)nc(-c3ccc(OC(C)C)nc3)cc2c1` [Compound 5222, tert-butyl ((2R,6S,7R,9S,13aS,14aR,16aS,Z)-2-((3-(6-isopropoxypyridin-3-yl)-6-methoxyisoquinolin-1-yl)oxy)-7,9-dimethyl-14a-(((1-methylcyclopropyl)sulfonyl)carbamoyl)-5,16-dioxo-1,2,3,5,6,7,8,9,10,11,13a,14,14a,15,16,16a-hexadecahydrocyclopropa[e]pyrrolo[1,2-a][1,4]diazacyclopentadecin-6-yl)carbamate], the EC50 in assay [1] is 4.82 to 103 nM; in assay [2], below 5.46 nM.

Regarding `COc1ccc2c(O[C@@H]3C[C@H]4C(=O)N[C@]5(C(=O)NS(=O)(=O)C6(C)CC6)C[C@H]5/C=C\CC[C@@H](C)C[C@@H](C)[C@H](NC(=O)OC(C)(C)C)C(=O)N4C3)nc(-c3ccc(OC(C)C)nc3)cc2c1` [Compound 5223, tert-butyl ((2R,6S,7R,9R,13aS,14aR,16aS,Z)-2-((3-(6-isopropoxypyridin-3-yl)-6-methoxyisoquinolin-1-yl)oxy)-7,9-dimethyl-14a-(((1-methylcyclopropyl)sulfonyl)carbamoyl)-5,16-dioxo-1,2,3,5,6,7,8,9,10,11,13a,14,14a,15,16,16a-hexadecahydrocyclopropa[e]pyrrolo[1,2-a][1,4]diazacyclopentadecin-6-yl)carbamate], the EC50 in assay [1] and in assay [2] was below 5.46 nM in each case.

With `COc1ccc2c(O[C@@H]3C[C@H]4C(=O)N[C@]5(C(=O)NS(=O)(=O)C6(C)CC6)C[C@H]5/C=C\CC[C@H](C)C[C@@H](C)[C@H](NC(=O)OC(C)(C)C(F)(F)F)C(=O)N4C3)nc(-c3ccc(OC(C)C)nc3)cc2c1` [Compound 5224, 1,1,1-trifluoro-2-methylpropan-2-yl((2R,6S,7R,9S,13aS,14aR,16aS,Z)-2-((3-(6-isopropoxypyridin-3-yl)-6-methoxyisoquinolin-1-yl)oxy)-7,9-dimethyl-14a-(((1-methylcyclopropyl)sulfonyl)carbamoyl)-5,16-dioxo-1,2,3,5,6,7,8,9,10,11,13a,14,14a,15,16,16a-hexadecahydrocyclopropa[e]pyrrolo[1,2-a][1,4]diazacyclopentadecin-6-yl)carbamate], the EC50 in assay [1] and in assay [2] was 4.82 to 103 nM in each case.

These data come from US9499550B2 (BRISTOL-MYERS SQUIBB COMPANY, priority 2012, dated 2016).
